Reference: ChEMBL document CHEMBL1121390, “Rm values and structure-activity relationship of benzodiazepines” (J Med Chem, 1980)

How the values were obtained:
[1] = Partition coefficient (logP); assay type: physicochemical; conditions: octanol/water
Rattus norvegicus [2] = species on record: Rattus norvegicus; experiment: ED50 value was reported as log1/C, which is the concentration required to reduce locomotor activity by 50% in rats; assay type: functional
Rattus norvegicus [3] = species on record: Rattus norvegicus; experiment: Fourfod increase in lever pressing in punished rats, ED50 value reported as log1/C; assay type: functional
Rattus norvegicus [4] = species on record: Rattus norvegicus; experiment: Halving of lever pressing in non punished rats, ED50 value reported as log 1/C; assay type: functional

Row | Compound | logP [1] | Log 1/C (Rattus norvegicus [2]) | Log 1/C (Rattus norvegicus [3]) | Log 1/C (Rattus norvegicus [4])
1 | O=C(O)CCC(=O)OCCN1C(=O)C[N+]([O-])=C(c2ccccc2)c2cc(Cl)ccc21 | 0.19 | 0.762 |  | 
2 | CCN(CC)CCN1C(=O)C(O)N=C(c2ccccc2)c2cc(Cl)ccc21 (stereo not drawn) | 1.67 |  |  | 
3 | O=C1Nc2ccc(Cl)cc2C(c2ccccc2F)=NC1O (stereo not drawn) | 1.48 | 2.501 | 2.36 | 2.045
4 | O=C1C[N+]([O-])=C(c2ccccc2)c2ccccc2N1 | 1.46 |  |  | 
5 | COc1cc(C(=O)OC2N=C(c3ccccc3)c3cc(Cl)ccc3NC2=O)cc(OC)c1OC (stereo not drawn) | 3.54 | 0.358 |  | 
6 | O=C1C[N+]([O-])=C(c2ccccc2)c2cc(Cl)ccc2N1CCO | 0.44 | 0.346 |  | 
7 | CN1C(=O)CN=C(c2ccccc2)c2cc(Cl)ccc21 [DIAZEPAM] |  | 1.793 | 1.876 | 1.659
8 | CN1CCN=C(c2ccccc2)c2cc(Cl)ccc21 [MEDAZEPAM] | 4.05 | 1.443 |  | 
9 | O=C(O)CCC(=O)OC1N=C(c2ccccc2)c2cc(Cl)ccc2NC1=O (stereo not drawn) | 1.41 | 1.381 |  | 
10 | CCOC1N=C(c2ccccc2)c2cc(Cl)ccc2N(CCCl)C1=O (stereo not drawn) | 3.95 | 0.193 |  | 
11 | O=C1Nc2ccc(Cl)cc2C(c2ccccc2)=NC1O (stereo not drawn) [OXAZEPAM] |  | 1.191 | 1.192 | 0.961
12 | CCN(CC)CCN1C(=O)C(O)N=C(c2ccccc2F)c2cc(Cl)ccc21 (stereo not drawn) | 1.68 |  |  | 
13 | CC(=O)OC1N=C(c2ccccc2)c2cc(Cl)ccc2N(CCO)C1=O (stereo not drawn) | 2.01 |  |  | 
14 | CCCC(CCC)C(=O)OC1N=C(c2ccccc2)c2cc(Cl)ccc2NC1=O (stereo not drawn) | 5.25 | 0.503 |  | 
15 | O=C1C(O)N=C(c2ccccc2)c2cc([N+](=O)[O-])ccc2N1CCO (stereo not drawn) | 0.72 | 0.34 |  | 
16 | CCOC1N=C(c2ccccc2)c2cc(Cl)ccc2N(CCOC(C)=O)C1=O (stereo not drawn) | 2.87 |  |  | 
17 | O=C1C(O)N=C(c2ccccc2)c2cc(Cl)ccc2N1CCO (stereo not drawn) | 1.35 | 0.797 | 0.361 | 0.42
18 | O=C1CN=C(c2ccccc2)c2cc(Cl)ccc2N1 [NORDAZEPAM] |  | 1.247 | 1.83 | 0.832
19 | O=C1C(O)N=C(c2ccccc2F)c2cc(Cl)ccc2N1CCO (stereo not drawn) [DOXEFAZEPAM] | 1.36 | 2.239 | 1.648 | 1.697
20 | O=C1Nc2ccc(Cl)cc2C(c2ccccc2Cl)=NC1O (stereo not drawn) [LORAZEPAM] |  | 3.145 | 2.444 | 2.897
21 | CN1C(=O)CN=C(c2ccccc2Cl)c2cc(Cl)ccc21 | 3.25 | 2.409 | 2.824 | 2.409

Row | Compound | logP [1] | Log 1/C (Rattus norvegicus [2]) | Log 1/C (Rattus norvegicus [3]) | Log 1/C (Rattus norvegicus [4])
22 | O=C1CN=C(c2ccccc2Cl)c2cc(Cl)ccc2N1 [DELORAZEPAM] | 2.73 | 2.79 | 2.678 | 2.509
23 | CC(=O)OCCCN1C(=O)C(OC(C)=O)N=C(c2ccccc2)c2cc(Cl)ccc21 (stereo not drawn) | 3 |  |  | 
24 | CN1C(=O)CN=C(c2ccccc2F)c2cc(Cl)ccc21 [FLUDIAZEPAM] | 2.67 | 2.598 | 2.721 | 2.417
25 | CNC1C[N+]([O-])=C(c2ccccc2)c2cc(Cl)ccc2N1 (stereo not drawn) | 2.5 | 1.628 | 1.578 | 1.277
26 | CN1C(=O)C(O)N=C(c2ccccc2)c2cc(Cl)ccc21 (stereo not drawn) [TEMAZEPAM] |  | 1.629 | 1.883 | 1.228
27 | O=C1C(O)N=C(c2ccccc2)c2cc(Cl)ccc2N1CCCO (stereo not drawn) | 1.87 |  |  | 
28 | O=C1C(O)N=C(c2ccccc2Cl)c2cc(Cl)ccc2N1CCO (stereo not drawn) | 1.94 | 2.005 | 1.959 | 1.711
29 | O=C1CN=C(c2ccccc2Cl)c2cc([N+](=O)[O-])ccc2N1 [CLONAZEPAM] | 2.41 |  |  | 
30 | CN1C(=O)C(O)N=C(c2ccccc2Cl)c2cc(Cl)ccc21 (stereo not drawn) [LORMETAZEPAM] | 2.58 | 2.594 | 2.658 | 2.394
31 | CNC(=O)N1C(=O)CN=C(c2ccccc2)c2cc([N+](=O)[O-])ccc21 | 1.95 |  |  | 
32 | O=C1CN=C(c2ccccc2)c2cc([N+](=O)[O-])ccc2N1 [NITRAZEPAM] | 2.12 | 2.326 |  | 
33 | O=C1CN=C(c2ccccc2)c2cc(Cl)ccc2N1CC(F)(F)F [HALAZEPAM] | 3.73 | 1.097 |  | 
34 | CCOC1N=C(c2ccccc2)c2cc(Cl)ccc2N(CCO)C1=O (stereo not drawn) | 2.4 |  |  | 
35 | CC(=O)OCCN1C(=O)C(OC(C)=O)N=C(c2ccccc2)c2cc(Cl)ccc21 (stereo not drawn) | 2.48 |  |  | 
36 | CCN(CC)CCN1C(=O)C(O)N=C(c2ccccc2Cl)c2cc(Cl)ccc21 (stereo not drawn) | 2.26 |  |  | 
37 | O=C1CN=C(c2ccccc2F)c2cc(Cl)ccc2N1 | 2.15 | 2.046 | 2.284 | 1.825
38 | CN1C(=O)CN=C(C2C=CCCC2)c2cc(Cl)ccc21 (stereo not drawn) | 2.76 |  |  | 
39 | CCN(CC)CCN1C(=O)CN=C(c2ccccc2F)c2cc(Cl)ccc21 [FLURAZEPAM] | 2.35 | 1.943 | 1.745 | 1.291
40 | CN1C(=O)C(O)N=C(c2ccccc2F)c2cc(Cl)ccc21 (stereo not drawn) [FLUTEMAZEPAM] | 2 | 2.81 | 2.585 | 2.371
41 | O=C1CN=C(c2ccccc2)c2cc(Cl)ccc2N1CC1CC1 [PRAZEPAM] | 3.72 | 0.709 |  | 
